The test system of one data set is HCT-116. Kind of data set: Cytotoxicity against human HCT116 cells assessed as cell viability after 48 hrs by MTT assay. It is filed as functional, cell-based. To be noted: HCT-116, 48 h. Background: Formazan colour is commonly taken as a measure of viable cells.
Data set [1] can be described thus: Cytotoxicity against human HCT8 cells assessed as cell viability after 48 hrs by MTT assay. The settings on record: HCT-8, 48 h. The data set is classed as functional, cell-based.
A short description of data set [2]: Retention time of the compound by HPLC method. The data set is classed as physicochemical.
The nature of data set [3]: Cytotoxicity against human DLD1 cells assessed as cell viability after 48 hrs by MTT assay. The data set is classed as functional, cell-based. The settings on record: DLD-1, 48 h.

Molecules are shown by their SMILES.

As to `COC(=O)CC[C@@H](C)[C@H]1CC[C@H]2[C@@H]3CC[C@@H]4C[C@H](OC(=O)CN5CCSCC5)CC[C@]4(C)[C@H]3CC[C@]12C.Cl`, the IC50 in the data set on HCT-116 came to 87.3 µM; in data set [1] it was 130 µM; in data set [3], 163 µM. This compound displayed a Retention_time in data set [2] of 28.63 min.
For the compound `COC(=O)CC[C@@H](C)[C@H]1CC[C@H]2[C@@H]3CC[C@@H]4C[C@H](OC(=O)C[N+]56CCN(CC5)CC6)CC[C@]4(C)[C@H]3CC[C@]12C.[Cl-]`, the IC50 in the data set with HCT-116 worked out at 60.7 µM; in data set [1] it was 76.4 µM; in data set [3], 46.4 µM. Besides, the Retention_time in data set [2] is reported as 7.98 min.
For the compound `COC(=O)CC[C@@H](C)[C@H]1CC[C@H]2[C@@H]3CC[C@@H]4C[C@H](OC(=O)C[n+]5ccc(N(C)C)cc5)CC[C@]4(C)[C@H]3CC[C@]12C.[Cl-]`, the IC50 in the data set on HCT-116 stood at 13.2 µM; in data set [1] it was 59.1 µM; in data set [3], 17 µM. This compound registered a Retention_time in data set [2] of 7.9 min.
On the same counts, the results for `COC(=O)CC[C@@H](C)[C@H]1CC[C@H]2[C@@H]3CC[C@@H]4C[C@H](OC(=O)C[n+]5ccccc5)CC[C@]4(C)[C@H]3CC[C@]12C.[Cl-]` are 26.5 µM, 35.4 µM, 35.4 µM and 7.84 min.
Regarding `COC(=O)CC[C@@H](C)[C@H]1CC[C@H]2[C@@H]3CC[C@@H]4C[C@H](OC(=O)C[N+](C)(C)C)CC[C@]4(C)[C@H]3CC[C@]12C.[Cl-]`, the IC50 was found to be 38.1 µM in the data set with HCT-116, 37 µM in data set [1] and 53 µM in data set [3]. This compound also gave a Retention_time in data set [2] of 7.94 min.
In the case of `COC(=O)CC[C@@H](C)[C@H]1CC[C@H]2[C@@H]3CC[C@@H]4C[C@H](OC(=O)C[N+]5(C)CCCC5)CC[C@]4(C)[C@H]3CC[C@]12C.[Cl-]`, the results for the half-inhibitory concentration (IC50) (in the data set on HCT-116; in data set [1]; in data set [3]) were 17.8 µM, 36.4 µM and 17 µM, respectively. The Retention_time in data set [2] is listed as 8.23 min.

A word on the IC50: it is the concentration at which inhibition is half-maximal.

The record behind these values is ChEMBL document CHEMBL3621166, “Synthesis, Structure-Activity Relationship, and Mechanistic Investigation of Lithocholic Acid Amphiphiles for Colon Cancer Therapy” (Medchemcomm, 2015).
